Experimental data taken from patent US20100324279A1, “CRYSTAL FORMS OF 2-[2-(4-CHLOROPHENYL)ETHOXY]ADENOSINE” (priority 2007, published 2010).
In brackets after ≈: the same amount, converted by molar mass.

Columns and labels:
[1] = Moisture sorption/desorption analysis; assay type: physicochemical; conditions: for Solid material after moisture sorption identified by XRPD: after sorption/desorption 5 to 95% RH; for Moisture sorption: total weight gain: between 5% and 95% relative humidity (RH); for Hygroscopicity based on the moisture sorption data: exposed to high relative humidity; for Weight lost upon desorption: after sorption to 95% RH
Experimental: Moisture sorption/desorption analyses may be performed, e.g., on a VTI SGA-100 Vapor Sorption Analyzer Sorption and desorption data are collected, e.g., over a range of 5 to 95% relative humidity (RH) at 10% RH intervals under a nitrogen purge. Samples need not to be dried prior to analysis. Equilibrium criteria used for analysis are, e.g., less than 0.01% weight change in 5 min, with a maximum equilibration time of 3 h if the weight criterion is not met NaCl and PVP may used as calibration standards.

[2] = Approximate solubilities of A-type crystals of MRE-0094 in test solvents; assay type: physicochemical; conditions: thermodynamic from solid
Experimental: Weighed samples of MRE-0094 (typically 30-60 mg) are treated with aliquots of the test solvent. Solvents are either reagent or HPLC grade. The aliquots are usually 200 μL or 500 μL. Between additions the mixtures are sonicated. […] Note that actual solubilities may be greater than those calculated due to the volume of the solvent aliquots or to a slow rate of dissolution. […] The solubilities are reported to the nearest mg/mL.

[3] = Heat stress studies and variable temperature XRPD; assay type: physicochemical
Experimental: For heat stress studies, samples of MRE-0094 A-type crystals are heated isothermally at different temperatures to investigate the effect of temperatures on solid state conversions. The samples are heated for up to 15 min. The solid material is allowed to cool before analyzing by XRPD.
(2 min). Variable temperature XRPD (VT-XRPD) may be performed on A-type crystals of MRE-0094 to better understand its thermal behavior. […] The sample remains as B-type crystals up to 165° C. […] It is likely that the melting of B-type crystals, subsequent recrystallization, and final melting of the solid occurs too fast to be captured by VT-XRPD. Based on the VT-XRPD data, the thermal events observed by DSC at approximately 117° C. and 126° C. are due to the solid conversion followed by the subsequent recrystallization to form B-type crystals.

[4] = Approximate solubilities of A-type crystals of MRE-0094 in test solvents; assay type: physicochemical; conditions: organic solvent or mixture, thermodynamic from solid; PG, RT; agitated two days, calculated from difference between starting and ending weights
[5] = Desolvation/dehydration studies under various drying conditions (XRPD); assay type: physicochemical; conditions: for Solid form after exposure to ambient conditions: eight days
Experimental: Desolvation studies under various conditions may be performed to investigate the effects of drying conditions on the C-type crystals. […] However, the anhydrous form to which C-type crystals convert may be dependent on the drying conditions and temperature.
Desolvation studies under various conditions may be conducted to investigate the effects of drying conditions on F-type crystals.
Dehydration studies under various conditions are performed to investigate the effects of drying conditions on the I-type crystals.

[6] = Stability to mechanical grinding/milling followed by vapor stress (XRPD); assay type: physicochemical; conditions: ball-milling, then about 97% relative humidity, K2SO4 humidity jar, 1 day
Description: Stability to grinding may be assessed by measurement of an appropriate physical property before and after grinding. Where the physical property remains substantially unchanged substantial stability to grinding is indicated. Suitable physico-chemical properties for measurement include a melting point or DSC analysis, a X-ray diffraction pattern, an infrared absorption spectrum and a Raman spectrum, particularly the X-ray diffraction pattern.
Stability to mechanical grinding/milling may be tested, e.g., by employing a small stainless steel cylinder The cylinder is charged with a weighted amount of a crystal form of MRE-0094 and a stainless steel ball is added, the cylinder is capped and the unit is placed on a Retsch Mixer Mill (Type MM 200) for a total of 30 min at a frequency of 30/s (ball-milling).

[7] = test system: neuropathic, diabetic foot ulcers (DFU); experiment: Phase I study of topical MRE-0094 gel: wound closure; assay type: in vivo; conditions: DFU patients; for % Wound Closure (Day 28): topically once daily for 28 days; for Median Number of Days to: 50% Closure / Median Number of Days to: 75% Closure: topically once daily
Experimental: (§1) MRE-0094 is administered to patients with neuropathic, diabetic foot ulcers (DFU). Patients 18-80 years old are randomized in a 1:3 ratio to a standard DFU care and a vehicle gel, or a standard DFU care and a gel containing MRE-0094 as described herein above. Standard care include routine sharp debridement, pressure offloading, and maintaining a moist wound environment. Inclusion criteria includes full thickness wounds between 1 and 10 cm^2 in area. Exclusion criteria includes arterial insufficiency, renal or hepatic insufficiency, active infection, or osteomyelitis. Patients are enrolled into 3 groups, and receive drug at an escalating concentration by group of 5 μg/g, 50 μg/g, or 500 μg/g. Safety data are reviewed by an independent safety board prior to escalating dose. Drug or vehicle is applied topically once daily for 28 days. Outcome measures include adverse events and other safety assessments, plasma concentrations of the active agent MRE-0094, percent of wound closure, and rate of wound closure. Thirty-six patients are randomized (25 active agent, 11 vehicle gel, i.e., placebo) with an average age of 54.8 years, 78% are male.

[8] = Phase I study: plasma concentrations of MRE-0094 (systemic absorption); assay type: in vivo, patients; conditions: any topical dose concentration (5, 50, 500 μg/g gel)
Experimental: as §1

diabetic ulcers = conditions: healthy BALB/C mice; cited from earlier work

For `Nc1nc(OCCc2ccc(Cl)cc2)nc2c1ncn2[C@@H]1O[C@H](CO)[C@@H](O)[C@H]1O` [A-type crystal form, 2-[2-(4-chlorophenyl)ethoxy]adenosine], the “Solid material after moisture sorption identified by XRPD” value (“Solid material” for short) [1] was “A-type crystal form”, the “Moisture sorption: total weight gain” value [1] was “approximately 4.3%” and the “Moisture sorption: weight gain” value ([1]; between 5 and 55% RH) was “approximately 0.3%”. For the same compound, the “Moisture sorption: additional weight gain” value ([1]; between 55% and 95% RH) was 4.0%, the “Hygroscopicity based on the moisture sorption data” value (“Hygroscopicity based” for short) [1] was “hygroscopic” and the solubility ([2]; aqueous with cosolvent or surfactant or cyclodextrin, EtOH:water - 1:1, RT) was 9 mg/mL (≈ 21.3 mM). The solubility ([2]; aqueous with cosolvent or surfactant or cyclodextrin, water:PG - 1:1, RT) was 6 mg/mL (≈ 14.2 mM), the solubility ([2]; organic solvent or mixture, 1,4-dioxane, RT) was 17 mg/mL (≈ 40.3 mM) and the solubility ([2]; organic solvent or mixture, ACN, RT) was less than 3 mg/mL. The solubility ([2]; organic solvent or mixture, DCM, RT) was less than 2 mg/mL, the solubility ([2]; organic solvent or mixture, DMF, RT) was 179 mg/mL (≈ 424 mM) and the solubility ([2]; organic solvent or mixture, EtOAc, RT) was less than 4 mg/mL. The solubility ([2]; organic solvent or mixture, EtOH, RT) was 7 mg/mL (≈ 16.6 mM), the solubility ([2]; organic solvent or mixture, EtOH:water - 19:1, RT) was 12 mg/mL (≈ 28.4 mM) and the solubility ([2]; organic solvent or mixture, IPA, RT) was 4 mg/mL (≈ 9.48 mM). The solubility ([2]; organic solvent or mixture, MEK, RT) was 4 mg/mL (≈ 9.48 mM), the solubility ([2]; organic solvent or mixture, MeOH, RT) was 4 mg/mL (≈ 9.48 mM) and the solubility ([2]; organic solvent or mixture, TFE, RT) was 11 mg/mL (≈ 26.1 mM). For the same compound, the solubility ([2]; organic solvent or mixture, THF, RT) was 23 mg/mL (≈ 54.5 mM), the solubility ([2]; organic solvent or mixture, acetone, RT) was 5 mg/mL (≈ 11.9 mM) and the solubility ([2]; organic solvent or mixture, heptane, RT) was less than 4 mg/mL. The solubility ([2]; organic solvent or mixture, toluene, RT) was less than 4 mg/mL, the solubility ([2]; water, RT) was less than 0.3 mg/mL and the “Temperature of solid form conversion in heat stress studies” value ([3]; isothermal heating, 2 min) was “approximately 164 °C”. The “Temperature of conversion to B-type crystal form (VT-XRPD)” value ([3]; variable temperature XRPD) was 120 °C, the “Temperature up to which the crystal form remains as such (VT-XRPD)” value ([3]; variable temperature XRPD) was “up to 115 °C” and the solubility at 2 days [4] was less than 71 mg/mL.

With `Nc1nc(OCCc2ccc(Cl)cc2)nc2c1ncn2[C@@H]1O[C@H](CO)[C@@H](O)[C@H]1O` [B-type crystal form, 2-[2-(4-chlorophenyl)ethoxy]adenosine] the “Weight lost upon desorption” value [1] was “Approximately 3.7%”, the “Solid material” value [1] was “B-type crystal form” and the “Moisture sorption: total weight gain” value [1] was “approximately 3.9%”. For the same compound, the “Hygroscopicity based” value [1] was “hygroscopic”.

With `Nc1nc(OCCc2ccc(Cl)cc2)nc2c1ncn2[C@@H]1O[C@H](CO)[C@@H](O)[C@H]1O` [C-type crystal form, 2-[2-(4-chlorophenyl)ethoxy]adenosine] the “Solid form after exposure to ambient conditions” value [5] was “does not completely convert to A-type crystals” and the “Solid form after desolvation” value ([5]; heated at 60° C. for eight days or dried in vacuo for six days) was “convert to A-type crystal form”.

In the case of `Nc1nc(OCCc2ccc(Cl)cc2)nc2c1ncn2[C@@H]1O[C@H](CO)[C@@H](O)[C@H]1O` [F-type crystal form, 2-[2-(4-chlorophenyl)ethoxy]adenosine], the “Solid form after exposure to ambient conditions” value ([5]; listed as F-type crystals) is reported as “Amorphous/low crystalline material” and the “Solid form after desolvation” value ([5]; vacuum oven and 60° C.) is reported as “low crystalline mixture of A-type and B-type crystals”.

For `Nc1nc(OCCc2ccc(Cl)cc2)nc2c1ncn2[C@@H]1O[C@H](CO)[C@@H](O)[C@H]1O` [G-type crystal form, 2-[2-(4-chlorophenyl)ethoxy]adenosine], the “Weight lost upon desorption” value [1] was “Approximately 2.2%”, the “Solid material” value [1] was “G-type crystal form” and the “Moisture sorption: total weight gain” value [1] was “approximately 2.4%”. The “Hygroscopicity based” value [1] was “hygroscopic” and the “Stability to mechanical milling followed by vapor stress” value [6] was “substantially stable”.

With `Nc1nc(OCCc2ccc(Cl)cc2)nc2c1ncn2[C@@H]1O[C@H](CO)[C@@H](O)[C@H]1O` [I-type crystal form, 2-[2-(4-chlorophenyl)ethoxy]adenosine] the “Solid form after dehydration” value ([5]; various drying conditions) was “either B-type, or a mixture of A-type and B-type crystals”.

With `Nc1nc(OCCc2ccc(Cl)cc2)nc2c1ncn2[C@@H]1O[C@H](CO)[C@@H](O)[C@H]1O` [MRE-0094, 2-[2-(4-chlorophenyl)ethoxy]adenosine] the “% Wound Closure (Day 28)” value ([7]; 5 μg/g gel) was 60.7%, the “Median Number of Days to: 50% Closure” value ([7]; 5 μg/g gel) was 8 days and the “Median Number of Days to: 75% Closure” value ([7]; 5 μg/g gel) was 14 days. The “% Wound Closure (Day 28)” value ([7]; 50 μg/g gel) was 67.5%, the “Median Number of Days to: 50% Closure” value ([7]; 50 μg/g gel) was 12 days and the “Median Number of Days to: 75% Closure” value ([7]; 50 μg/g gel) was 28 days. For the same compound, the “% Wound Closure (Day 28)” value ([7]; 500 μg/g gel) was 35.4%, the “Median Number of Days to: 50% Closure” value ([7]; 500 μg/g gel) was 14 days and the “Median Number of Days to: 75% Closure” value ([7]; 500 μg/g gel) was 36 days. For the same compound, the “Systemic absorption of MRE-0094” value [8] was “No systemic absorption” and the “Wound healing of diabetic ulcers” value (diabetic ulcers) was “promote wound healing”.
